Assay results: publication PMC6979384, “Characterization of the plant homeodomain (PHD) reader family for their histone tail interactions” (Epigenetics & Chromatin, 2020)
Where no end group is shown, it is not given here.

What was measured:
Assay in all cases: Histone peptide microarray
Assay type in all cases: binding, human
DIDO1 = conditions: DIDO1; sheet "Array Heatmap"; each array performed twice, total n = 4
Description: (§1) To more comprehensively define the histone interactions of the 31 PHD readers identified from the domain microarray analyses, we probed each on an alternate microarray platform containing a library of 293 synthetic histone peptides with single or combinatorial PTMs (Additional file 2: Figure S4 and Additional file 3: Table S2).
(§2) The 31 GST-tagged PHD readers identified in the PHD finger domain array were expressed and purified as previously. Histone peptide arrays and peptide pulldown assays were conducted as recently described (specifically, the optimized protocol from Petell et al. for the former).
(§3) Supplementary file 13072_2020_328_MOESM3_ESM.xlsx: Additional file 3: Table S2. […] Excel Tab Peptide List is a compiled list of the entire 293 histone peptide library with amino acid sequence ranges. […] Each number corresponds to the peptide number designated in Peptide List. Excel Tab Average Signals is a compiled set of binding data: chromatin reader at 0.5 μM vs. entire 293 peptide library. Data is presented as the average and standard deviation of 4 replicates. The average signals are colored to indicate signal intensity with green being strong and white being weak/low. […] Key: red= stronger relative binding; blue = weaker relative binding. Excel Tab Array info summary is a table summarizing the domains, sequence coverage, array signal range, and noise for each of the GST-tagged readers assayed on the peptide microarrays.

PHF2 = conditions: PHF2; sheet "Array Heatmap"; each array performed twice, total n = 4
Description: as §1, §2, §3

ING2 = conditions: ING2; sheet "Array Heatmap"; each array performed twice, total n = 4
Description: as §1, §2, §3

TAF3 = conditions: TAF3; sheet "Array Heatmap"; each array performed twice, total n = 4
Description: as §1, §2, §3

BPTF (PB) = conditions: BPTF (PB); sheet "Array Heatmap"; each array performed twice, total n = 4
Description: as §1, §2, §3

MLL5 = conditions: MLL5; sheet "Array Heatmap"; each array performed twice, total n = 4
Description: as §1, §2, §3

KDM5B (1) = conditions: KDM5B (1); sheet "Array Heatmap"; each array performed twice, total n = 4
Description: as §1, §2, §3

PHRF1 (RP) = conditions: PHRF1 (RP); sheet "Array Heatmap"; each array performed twice, total n = 4
Description: as §1, §2, §3

ING5 = conditions: ING5; sheet "Array Heatmap"; each array performed twice, total n = 4
Description: as §1, §2, §3

PHF8 = conditions: PHF8; sheet "Array Heatmap"; each array performed twice, total n = 4
Description: as §1, §2, §3

KDM5B (3) = conditions: KDM5B (3); sheet "Array Heatmap"; each array performed twice, total n = 4
Description: as §1, §2, §3

ING1 = conditions: ING1; sheet "Array Heatmap"; each array performed twice, total n = 4
Description: as §1, §2, §3

MORC3 (CW) = conditions: MORC3 (CW); sheet "Array Heatmap"; each array performed twice, total n = 4
Description: as §1, §2, §3

AIRE (PP) = conditions: AIRE (PP); sheet "Array Heatmap"; each array performed twice, total n = 4
Description: as §1, §2, §3

KDM4C (TTP) = conditions: KDM4C (TTP); sheet "Array Heatmap"; each array performed twice, total n = 4
Description: as §1, §2, §3

CHD5 (PPCC) = conditions: CHD5 (PPCC); sheet "Array Heatmap"; each array performed twice, total n = 4
Description: as §1, §2, §3

RAG2 = conditions: RAG2; sheet "Array Heatmap"; each array performed twice, total n = 4
Description: as §1, §2, §3

PHF13 = conditions: PHF13; sheet "Array Heatmap"; each array performed twice, total n = 4
Description: as §1, §2, §3

ING4 = conditions: ING4; sheet "Array Heatmap"; each array performed twice, total n = 4
Description: as §1, §2, §3

PHF23 = conditions: PHF23; sheet "Array Heatmap"; each array performed twice, total n = 4
Description: as §1, §2, §3

KDM7A = conditions: KDM7A; sheet "Array Heatmap"; each array performed twice, total n = 4
Description: as §1, §2, §3

DPF2 (PPC2W2) = conditions: DPF2 (PPC2W2); sheet "Array Heatmap"; each array performed twice, total n = 4
Description: as §1, §2, §3

PHF21A = conditions: PHF21A; sheet "Array Heatmap"; each array performed twice, total n = 4
Description: as §1, §2, §3

SP140L = conditions: SP140L; sheet "Array Heatmap"; each array performed twice, total n = 4
Description: as §1, §2, §3

ING3 = conditions: ING3; sheet "Array Heatmap"; each array performed twice, total n = 4
Description: as §1, §2, §3

CHD5 (PCC) = conditions: CHD5 (PCC); sheet "Array Heatmap"; each array performed twice, total n = 4
Description: as §1, §2, §3

CHD4 (PPCC) = conditions: CHD4 (PPCC); sheet "Array Heatmap"; each array performed twice, total n = 4
Description: as §1, §2, §3

KDM5A (1) = conditions: KDM5A (1); sheet "Array Heatmap"; each array performed twice, total n = 4
Description: as §1, §2, §3

BAZ2B = conditions: BAZ2B; sheet "Array Heatmap"; each array performed twice, total n = 4
Description: as §1, §2, §3

KDM5A (3) = conditions: KDM5A (3); sheet "Array Heatmap"; each array performed twice, total n = 4
Description: as §1, §2, §3

TRIM66 (PB) = conditions: TRIM66 (PB); sheet "Array Heatmap"; each array performed twice, total n = 4
Description: as §1, §2, §3

Substance | Array Heatmap value (peptide array signal) (DIDO1) | Array Heatmap value (peptide array signal) (PHF2) | Array Heatmap value (peptide array signal) (ING2) | Array Heatmap value (peptide array signal) (TAF3) | Array Heatmap value (peptide array signal) (BPTF (PB)) | Array Heatmap value (peptide array signal) (MLL5) | Array Heatmap value (peptide array signal) (KDM5B (1)) | Array Heatmap value (peptide array signal) (PHRF1 (RP)) | Array Heatmap value (peptide array signal) (ING5) | Array Heatmap value (peptide array signal) (PHF8) | Array Heatmap value (peptide array signal) (KDM5B (3)) | Array Heatmap value (peptide array signal) (ING1) | Array Heatmap value (peptide array signal) (MORC3 (CW)) | Array Heatmap value (peptide array signal) (AIRE (PP)) | Array Heatmap value (peptide array signal) (KDM4C (TTP)) | Array Heatmap value (peptide array signal) (CHD5 (PPCC)) | Array Heatmap value (peptide array signal) (RAG2) | Array Heatmap value (peptide array signal) (PHF13) | Array Heatmap value (peptide array signal) (ING4) | Array Heatmap value (peptide array signal) (PHF23) | other results
H2A (10-25): H2A 10-25 (ARAKAKTRSSRAGLQF; UniProt P0C0S8 11-26, looked up, fragment) | 0.6569 | 0.4378 | 0.647 | 0.2598 | 0.3546 | 0.5534 | 0.668 | 0.4431 | 0.3701 | 0.3624 | 0.4449 | 0.5431 | 0.3714 | 0.4997 | 0.5121 | 0.5571 | 0.2471 | 0.6145 | 0.4661 | 0.5294 | Array Heatmap value (peptide array signal) (KDM7A): 0.3832; Array Heatmap value (peptide array signal) (DPF2 (PPC2W2)): 0.6893; Array Heatmap value (peptide array signal) (PHF21A): 0.4834; Array Heatmap value (peptide array signal) (SP140L): 0.3704; Array Heatmap value (peptide array signal) (ING3): 0.4796; Array Heatmap value (peptide array signal) (CHD5 (PCC)): 0.8105; Array Heatmap value (peptide array signal) (CHD4 (PPCC)): 0.556; Array Heatmap value (peptide array signal) (KDM5A (1)): 0.4831; Array Heatmap value (peptide array signal) (BAZ2B): 0.4876; Array Heatmap value (peptide array signal) (KDM5A (3)): 0.4414; Array Heatmap value (peptide array signal) (TRIM66 (PB)): 0.5591
H2A.X (1-17): H2AX 1-17 (SGRGKTGGKARAKAKSR; UniProt P16104 2-18, looked up, fragment) | 0.6032 | 0.3941 | 0.5852 | 0.2689 | 0.3452 | 0.5474 | 0.6651 | 0.3918 | 0.3684 | 0.3196 | 0.4974 | 0.4806 | 0.3549 | 0.5574 | 0.5423 | 0.5657 | 0.2388 | 0.6046 | 0.4775 | 0.4786 | Array Heatmap value (peptide array signal) (KDM7A): 0.5198; Array Heatmap value (peptide array signal) (DPF2 (PPC2W2)): 0.6636; Array Heatmap value (peptide array signal) (PHF21A): 0.4705; Array Heatmap value (peptide array signal) (SP140L): 0.3804; Array Heatmap value (peptide array signal) (ING3): 0.4419; Array Heatmap value (peptide array signal) (CHD5 (PCC)): 0.8255; Array Heatmap value (peptide array signal) (CHD4 (PPCC)): 0.5416; Array Heatmap value (peptide array signal) (KDM5A (1)): 0.4987; Array Heatmap value (peptide array signal) (BAZ2B): 0.5024; Array Heatmap value (peptide array signal) (KDM5A (3)): 0.4093; Array Heatmap value (peptide array signal) (TRIM66 (PB)): 0.5377
H2A.X K5ac: H2AX 1-17 (SGRGK(Ac)TGGKARAKAKSR; UniProt P16104 2-18, looked up, fragment) | 0.6192 | 0.3936 | 0.5785 | 0.2702 | 0.3356 | 0.5039 | 0.7034 | 0.4233 | 0.3639 | 0.3518 | 0.4746 | 0.4851 | 0.3506 | 0.4642 | 0.5139 | 0.549 | 0.2437 | 0.5821 | 0.4505 | 0.5099 | Array Heatmap value (peptide array signal) (KDM7A): 0.4169; Array Heatmap value (peptide array signal) (DPF2 (PPC2W2)): 0.6362; Array Heatmap value (peptide array signal) (PHF21A): 0.4552; Array Heatmap value (peptide array signal) (SP140L): 0.3645; Array Heatmap value (peptide array signal) (ING3): 0.4453; Array Heatmap value (peptide array signal) (CHD5 (PCC)): 0.7832; Array Heatmap value (peptide array signal) (CHD4 (PPCC)): 0.5228; Array Heatmap value (peptide array signal) (KDM5A (1)): 0.4768; Array Heatmap value (peptide array signal) (BAZ2B): 0.4631; Array Heatmap value (peptide array signal) (KDM5A (3)): 0.4343; Array Heatmap value (peptide array signal) (TRIM66 (PB)): 0.5335
